Test [1] deals with Tyrosine-protein kinase Yes (Homo sapiens) (UniProt P07947). Put plainly: Selectivity interaction (Kinase panel (Z-LYTE Assay)) EUB0001632a YES1. To be noted: at 10 µM.
For test [2], the target named is T1, Cyclin-dependent kinase-like 2 (Homo sapiens) (UniProt Q92772).
T1 sequence (whole entry): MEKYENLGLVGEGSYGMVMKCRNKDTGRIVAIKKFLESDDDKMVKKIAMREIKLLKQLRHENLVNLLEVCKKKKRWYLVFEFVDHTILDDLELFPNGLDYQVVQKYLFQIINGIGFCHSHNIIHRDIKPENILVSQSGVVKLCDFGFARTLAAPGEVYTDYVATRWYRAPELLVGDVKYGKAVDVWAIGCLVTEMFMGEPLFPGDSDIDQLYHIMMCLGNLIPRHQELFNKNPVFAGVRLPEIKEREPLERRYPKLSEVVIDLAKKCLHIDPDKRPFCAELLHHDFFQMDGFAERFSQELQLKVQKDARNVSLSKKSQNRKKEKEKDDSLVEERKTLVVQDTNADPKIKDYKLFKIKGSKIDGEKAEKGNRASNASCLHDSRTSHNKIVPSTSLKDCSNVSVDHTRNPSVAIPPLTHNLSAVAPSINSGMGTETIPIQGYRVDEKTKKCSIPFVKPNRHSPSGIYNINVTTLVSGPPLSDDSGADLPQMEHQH
The test can be described thus: Selectivity interaction (KinomeScan (DiscoverX)) EUB0000595a CDKL2. The following applies: at 10 µM.

Test [3] addresses T2, Cyclin-G-associated kinase (Homo sapiens) (UniProt O14976).
T2 sequence (whole entry): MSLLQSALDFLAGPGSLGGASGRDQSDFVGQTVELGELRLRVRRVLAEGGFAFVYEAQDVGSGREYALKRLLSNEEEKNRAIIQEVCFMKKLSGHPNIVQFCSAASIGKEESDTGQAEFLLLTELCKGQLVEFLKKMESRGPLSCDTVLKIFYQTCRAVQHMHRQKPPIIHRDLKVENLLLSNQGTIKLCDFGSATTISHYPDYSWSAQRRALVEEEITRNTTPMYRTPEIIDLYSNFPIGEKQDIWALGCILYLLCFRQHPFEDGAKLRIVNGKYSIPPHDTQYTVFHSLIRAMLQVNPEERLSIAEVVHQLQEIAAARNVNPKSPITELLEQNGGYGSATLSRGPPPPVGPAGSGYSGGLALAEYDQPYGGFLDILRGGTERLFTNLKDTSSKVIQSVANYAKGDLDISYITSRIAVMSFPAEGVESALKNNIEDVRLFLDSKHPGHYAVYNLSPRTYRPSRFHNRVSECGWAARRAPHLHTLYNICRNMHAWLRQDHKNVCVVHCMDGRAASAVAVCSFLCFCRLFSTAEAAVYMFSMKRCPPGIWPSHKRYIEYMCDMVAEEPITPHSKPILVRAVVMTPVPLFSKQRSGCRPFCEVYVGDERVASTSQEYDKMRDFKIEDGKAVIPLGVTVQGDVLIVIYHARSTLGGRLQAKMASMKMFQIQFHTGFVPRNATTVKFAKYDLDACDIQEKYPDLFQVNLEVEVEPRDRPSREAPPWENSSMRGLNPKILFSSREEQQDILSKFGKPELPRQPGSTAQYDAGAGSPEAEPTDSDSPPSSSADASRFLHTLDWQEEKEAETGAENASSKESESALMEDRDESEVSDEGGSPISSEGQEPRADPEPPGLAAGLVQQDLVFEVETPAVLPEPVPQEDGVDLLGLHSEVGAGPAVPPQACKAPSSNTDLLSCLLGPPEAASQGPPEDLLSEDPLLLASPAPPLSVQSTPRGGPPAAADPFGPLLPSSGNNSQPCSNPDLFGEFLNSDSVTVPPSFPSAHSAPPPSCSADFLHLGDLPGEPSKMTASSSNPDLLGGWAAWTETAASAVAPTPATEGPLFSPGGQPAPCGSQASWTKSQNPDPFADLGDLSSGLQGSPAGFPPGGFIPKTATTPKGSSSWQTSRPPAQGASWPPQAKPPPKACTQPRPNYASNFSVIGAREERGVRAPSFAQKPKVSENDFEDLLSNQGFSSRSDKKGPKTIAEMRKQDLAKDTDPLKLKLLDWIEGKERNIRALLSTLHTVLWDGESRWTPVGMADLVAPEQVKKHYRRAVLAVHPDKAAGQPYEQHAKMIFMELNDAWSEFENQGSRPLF
To be noted: at 10 µM.

Test [4] addresses cAMP-dependent protein kinase catalytic subunit beta (Homo sapiens) (UniProt P22694). Put plainly: Selectivity interaction (KinomeScan (DiscoverX)) EUB0000607a PRKACB. The following applies: at 10 µM.
Test [5] has as its target T3, Inhibitor of nuclear factor kappa-B kinase subunit epsilon (Homo sapiens) (UniProt Q14164).
T3 sequence (whole entry): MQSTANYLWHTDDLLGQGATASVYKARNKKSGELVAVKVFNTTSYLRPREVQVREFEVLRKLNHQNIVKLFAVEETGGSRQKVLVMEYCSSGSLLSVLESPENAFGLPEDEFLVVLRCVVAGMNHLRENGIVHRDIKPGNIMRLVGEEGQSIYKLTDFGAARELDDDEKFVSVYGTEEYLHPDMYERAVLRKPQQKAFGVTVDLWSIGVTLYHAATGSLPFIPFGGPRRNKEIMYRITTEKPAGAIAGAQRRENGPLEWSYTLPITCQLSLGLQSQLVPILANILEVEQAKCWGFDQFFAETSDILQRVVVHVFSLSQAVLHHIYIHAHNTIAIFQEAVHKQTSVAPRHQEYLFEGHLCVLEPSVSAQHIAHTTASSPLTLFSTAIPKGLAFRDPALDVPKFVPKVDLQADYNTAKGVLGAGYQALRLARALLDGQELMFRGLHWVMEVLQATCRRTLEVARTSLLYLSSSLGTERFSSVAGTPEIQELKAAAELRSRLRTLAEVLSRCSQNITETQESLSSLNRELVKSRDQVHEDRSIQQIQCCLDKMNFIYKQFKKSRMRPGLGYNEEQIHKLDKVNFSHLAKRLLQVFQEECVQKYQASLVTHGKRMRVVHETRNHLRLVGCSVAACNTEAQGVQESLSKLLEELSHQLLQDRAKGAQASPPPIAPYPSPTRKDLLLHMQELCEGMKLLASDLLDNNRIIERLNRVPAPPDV
Put plainly: Selectivity interaction (ProQinase) EUB0000171b IKBKE.

For test [6], the target named is Ephrin type-A receptor 5 (Homo sapiens) (UniProt P54756). Put plainly: Selectivity interaction (KinomeScan (DiscoverX)) EUB0001049a EPHA5. To be noted: at 1 µM.
Sequence of Ephrin type-A receptor 5 (Homo sapiens) (P54756 whole entry): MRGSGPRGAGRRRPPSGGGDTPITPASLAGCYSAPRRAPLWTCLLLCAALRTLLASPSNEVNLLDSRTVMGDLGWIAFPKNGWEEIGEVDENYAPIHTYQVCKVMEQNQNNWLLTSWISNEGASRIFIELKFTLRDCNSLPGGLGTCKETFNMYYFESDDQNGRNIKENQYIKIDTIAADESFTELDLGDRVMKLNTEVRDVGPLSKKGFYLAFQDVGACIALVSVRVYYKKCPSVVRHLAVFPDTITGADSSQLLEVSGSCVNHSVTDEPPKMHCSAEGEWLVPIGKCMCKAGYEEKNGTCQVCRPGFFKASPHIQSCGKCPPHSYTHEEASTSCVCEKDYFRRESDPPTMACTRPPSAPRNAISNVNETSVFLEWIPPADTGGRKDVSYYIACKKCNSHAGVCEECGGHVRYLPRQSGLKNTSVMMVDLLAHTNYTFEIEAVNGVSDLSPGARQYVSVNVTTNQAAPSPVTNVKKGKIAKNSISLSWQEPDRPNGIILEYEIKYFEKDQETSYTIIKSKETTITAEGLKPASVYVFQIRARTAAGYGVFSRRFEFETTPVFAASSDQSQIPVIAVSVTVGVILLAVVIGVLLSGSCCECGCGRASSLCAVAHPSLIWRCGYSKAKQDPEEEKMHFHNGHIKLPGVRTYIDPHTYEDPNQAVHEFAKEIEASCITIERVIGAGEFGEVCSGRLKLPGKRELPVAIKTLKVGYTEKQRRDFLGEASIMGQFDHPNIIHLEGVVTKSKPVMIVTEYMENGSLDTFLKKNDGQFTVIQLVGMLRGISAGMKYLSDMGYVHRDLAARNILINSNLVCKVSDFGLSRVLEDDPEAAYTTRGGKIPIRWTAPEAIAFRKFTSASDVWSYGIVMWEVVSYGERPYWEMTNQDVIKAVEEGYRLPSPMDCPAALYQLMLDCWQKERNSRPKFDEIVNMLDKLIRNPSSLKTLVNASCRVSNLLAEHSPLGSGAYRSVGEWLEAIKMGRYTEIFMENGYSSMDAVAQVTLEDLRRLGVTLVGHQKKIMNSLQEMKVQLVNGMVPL
Test [7] has as its target Mitogen-activated protein kinase 1 (Homo sapiens, UniProt P28482). The test can be described thus: Selectivity interaction (Kinase panel (DSF assay)) EUB0001558a MAPK1. In general terms: In DSF a fluorescence change marks the thermal transition of the protein.
Test [8] addresses Proto-oncogene tyrosine-protein kinase Src (Homo sapiens, UniProt P12931). Put plainly: Selectivity interaction (KinomeScan (DiscoverX)) EUB0000229b SRC. To be noted: at 10 µM.
The target in test [9] is Serine/threonine-protein kinase PLK1 (Homo sapiens, UniProt P53350). The test can be described thus: Selectivity interaction (KinomeScan (DiscoverX)) EUB0000229b PLK1. To be noted: at 10 µM.
Sequence of Serine/threonine-protein kinase PLK1 (P53350 whole entry): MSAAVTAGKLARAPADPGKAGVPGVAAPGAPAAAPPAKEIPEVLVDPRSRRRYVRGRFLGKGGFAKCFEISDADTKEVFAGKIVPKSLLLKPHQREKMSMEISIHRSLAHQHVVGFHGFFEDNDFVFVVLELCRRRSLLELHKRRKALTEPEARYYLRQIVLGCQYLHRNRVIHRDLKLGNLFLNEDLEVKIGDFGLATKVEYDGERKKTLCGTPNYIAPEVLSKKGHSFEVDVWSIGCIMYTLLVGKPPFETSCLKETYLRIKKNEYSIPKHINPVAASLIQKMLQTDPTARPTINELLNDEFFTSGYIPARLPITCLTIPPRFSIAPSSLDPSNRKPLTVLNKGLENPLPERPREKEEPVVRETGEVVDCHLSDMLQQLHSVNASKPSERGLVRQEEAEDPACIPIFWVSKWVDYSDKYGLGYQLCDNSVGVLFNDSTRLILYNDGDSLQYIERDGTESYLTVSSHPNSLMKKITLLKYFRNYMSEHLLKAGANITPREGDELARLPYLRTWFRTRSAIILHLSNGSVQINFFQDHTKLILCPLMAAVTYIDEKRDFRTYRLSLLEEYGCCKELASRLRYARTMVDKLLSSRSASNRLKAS

% of control, dTM and % binding data for eight molecules are collected here from ChEMBL document CHEMBL5465560, “Selectivity Literature for EUbOPEN Chemogenomic Library” (2024).

Sequence of Proto-oncogene tyrosine-protein kinase Src (P12931 2-536 limits assumed): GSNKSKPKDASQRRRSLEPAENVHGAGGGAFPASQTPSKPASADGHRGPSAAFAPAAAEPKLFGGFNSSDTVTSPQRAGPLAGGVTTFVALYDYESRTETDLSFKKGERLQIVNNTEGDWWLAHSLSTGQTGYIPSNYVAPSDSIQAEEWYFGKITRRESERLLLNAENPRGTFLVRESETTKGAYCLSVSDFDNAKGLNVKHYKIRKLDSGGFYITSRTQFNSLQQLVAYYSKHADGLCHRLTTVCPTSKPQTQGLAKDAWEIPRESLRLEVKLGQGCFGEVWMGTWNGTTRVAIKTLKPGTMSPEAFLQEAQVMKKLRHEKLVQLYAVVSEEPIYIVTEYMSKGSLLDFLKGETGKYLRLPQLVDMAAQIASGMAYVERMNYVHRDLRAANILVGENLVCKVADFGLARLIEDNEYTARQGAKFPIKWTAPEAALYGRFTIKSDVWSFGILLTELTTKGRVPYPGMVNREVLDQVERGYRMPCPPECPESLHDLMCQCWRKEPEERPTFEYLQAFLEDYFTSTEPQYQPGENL
Sequence of Tyrosine-protein kinase Yes (Homo sapiens) (P07947 2-543 limits assumed): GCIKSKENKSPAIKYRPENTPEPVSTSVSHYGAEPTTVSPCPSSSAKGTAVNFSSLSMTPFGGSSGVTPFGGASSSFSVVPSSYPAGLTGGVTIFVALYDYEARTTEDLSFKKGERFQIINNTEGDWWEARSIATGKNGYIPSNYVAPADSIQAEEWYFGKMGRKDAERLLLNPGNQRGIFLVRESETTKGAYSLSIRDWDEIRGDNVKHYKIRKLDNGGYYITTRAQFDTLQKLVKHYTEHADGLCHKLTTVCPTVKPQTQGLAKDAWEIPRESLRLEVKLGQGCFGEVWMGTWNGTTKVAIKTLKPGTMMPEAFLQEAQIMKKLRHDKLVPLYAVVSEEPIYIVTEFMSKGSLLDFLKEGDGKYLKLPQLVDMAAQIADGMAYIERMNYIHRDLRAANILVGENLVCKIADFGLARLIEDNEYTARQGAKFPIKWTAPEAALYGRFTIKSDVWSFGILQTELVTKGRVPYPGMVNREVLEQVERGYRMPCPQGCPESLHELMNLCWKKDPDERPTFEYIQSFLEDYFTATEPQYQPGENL
Sequence of Mitogen-activated protein kinase 1 (P28482 whole entry): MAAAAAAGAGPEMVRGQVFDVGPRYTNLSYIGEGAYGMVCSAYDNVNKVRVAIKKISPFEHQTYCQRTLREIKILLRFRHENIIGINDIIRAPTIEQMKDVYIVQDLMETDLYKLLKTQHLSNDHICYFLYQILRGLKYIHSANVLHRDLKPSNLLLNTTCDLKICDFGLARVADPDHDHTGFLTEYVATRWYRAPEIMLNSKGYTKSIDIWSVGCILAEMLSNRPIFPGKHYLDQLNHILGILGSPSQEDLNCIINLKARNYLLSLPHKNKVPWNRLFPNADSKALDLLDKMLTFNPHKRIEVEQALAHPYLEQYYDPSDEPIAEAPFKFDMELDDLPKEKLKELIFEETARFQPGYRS

`Cn1cc(-n2cnc3c(NCc4nc5cc(Cl)c(Cl)cc5[nH]4)nc(N4CCOCC4)nc32)cn1` registered a % of control in test [1] of 0.787%.

In [2], `COCC(=O)NC/C=C/c1ccc2ncnc(Nc3ccc(Oc4ccc(C)nc4)c(C)c3)c2c1` [CP-724714] showed a % of control of 91%.

Molecule `CCN(CC)CCCCNc1ncc2cc(-c3cc(OC)cc(OC)c3)c(NC(=O)NC(C)(C)C)nc2n1` returned a % of control in test [3] of 100%.

As to `CNC(=O)Nc1ccc(-c2nc(N3CC4CCC(C3)O4)c3cnn(C4CCC5(CC4)OCCO5)c3n2)cc1`, the % of control in test [4] amounted to 87%.

As for `C=CC(=O)Nc1cccc(C(=O)Nc2ccc(Nc3cc(-c4[nH]c(SC)nc4C)ccn3)cc2)c1`, the % of control in test [5] (at 1 µM) was found to be 88%; in [5] (at 5 µM), 70%.

`COc1cc(Nc2nc(C)cc(-c3cnn4nc(OC)ccc34)n2)cc(C(F)(F)F)c1`: in test [6], the % of control is 96%.

On to `CC(C)(O)[C@H](F)CN1Cc2cc(NC(=O)c3cnn4cccnc34)c(N3CCOCC3)cc2C1=O`, for which the dTM in test [7] stood at 0.4 K.

`COc1cc(N(C)c2ccnc3ccc(C(F)(F)F)cc23)cc(OC)c1OC`: the % binding in test [8] and in test [9] was 100% throughout.
